Converted amounts (≈) assume the structure as drawn. Where two headings read alike, the source gives them in different places.
Key:
[1] = test system: EC-109; assay: MTT antiproliferative assay, EC-109; assay type: cell-based, human; settings: mean ± SD of three experiments
Experimental: (§1) In totally, a series of novel chalcone-1,2,3-triazole-azole derivatives were successfully synthesized, and their structures characterized by ^1H-NMR, ^13C-NMR, HRMS. Their in vitro antiproliferative activities were then tested, using a MTT assay, against three selected cancer cell lines (SK-N-SH, EC-109 and MGC-803) and compared with the well-known anticancer drug 5-fluorouracil.
(§2) All synthesized compounds were evaluated for their anticancer activity against three cancer cell lines, MGC-803 (human gastric cancer cell line), SK-N-SH (human neuroendocrine cancer cell line), and […] (human esophageal cancer cell line) using MTT assay method and compared with the well-known anticancer drug 5-fluorouracil.

[2] = test system: SK-N-SH; assay: MTT antiproliferative assay, SK-N-SH; assay type: cell-based, human; settings: 72 h exposure, mean ± SD of three experiments
Experimental: as §1, §2

[3] = test system: MGC-803; assay: MTT antiproliferative assay, MGC-803; assay type: cell-based, human; settings: mean ± SD of three experiments
Experimental: as §1, §2

[4] = test system: GES-1; assay: Cytotoxicity against normal GES-1 cells; assay type: cell-based, human; settings: for IC50: normal human gastric epithelial cell line, 72 h exposure, mean ± SD of three experiments; for selectivity between cancer and normal cells: MGC-803 versus GES-1
From the text: Compounds I-14 and I-21 were further examined for possible cytotoxicity against GES-1 (normal human gastric epithelial cell line).

[5] = test system: SK-N-SH, EC-109 and MGC-803; assay: MTT antiproliferative assay, three cancer cell lines together; assay type: cell-based, human; settings: range across EC-109, SK-N-SH, read-out: IC50 values, range over the three cancer cell lines
Experimental: as §1, §2

[6] = test system: K562 cells; design: method as in PMID 19837593; settings: cited from earlier work
[7] = test system: SK-N-SH cells; assay: Apoptosis analysis with Hoechst-33258 staining; assay type: cell-based, human; settings: SK-N-SH cells, 5, 10 and 20 μM; 24 h / 48 h (legend of Figure 5)
Experimental: To explore cytotoxicity of I-21 in SK-N-SH cells, cell apoptosis was investigated with Hoechst 33258 staining.
Figure 5 Apoptosis analysis with Hoechst-33258 staining after a 48 h treatment of I-21 in SK-N-SH cell line at 5 μM, 10 μM and 20 μM.

[8] = test system: Bcl-2 and Bax in SK-N-SH cells; assay: Western blot of Bcl-2 and Bax; assay type: cell-based, human; settings: 48 h treatment
Experimental: Antiproliferative agents that induce apoptosis in cancer cells are always preferred in antitumor drug discovery. Bcl-2 associated proteins have both anti-apoptotic and pro-apoptotic effects in vrious cancer cell lines. For the high potent cytotoxic activity against SK-N-SH cell line, compound I-21 was evaluated the level of Bcl-2 (apoptotic inhibitor) and Bax (apoptotic inducer). […] Further mechanism investigations are under way and will be reported in due course.
Figure 6 Expression of Bcl-2 and Bax in SK-N-SH cells after treatment by compound I-21 for 48 h.

[9] = test system: MCF-7; settings: cited from earlier work
[10] = test system: SMMC-7721; design: method as in PMID 21345546; settings: cited from earlier work
[11] = Homo sapiens, ECa-109, 72 h exposure
[12] = Homo sapiens, MGC-803, 72 h exposure

Molecule: Cn1nnnc1SCc1cn(CCCOc2ccc(C(=O)/C=C/c3cccnc3)cc2)nn1 [Compound I-26, (E)-1-(4-(3-(4-(((1-Methyl-1H-tetrazol-5-yl)thio)methyl)-1H-1,2,3-triazol-1-yl)propoxy)phenyl)-3-(pyridin-3-yl)prop-2-en-1-one]
- IC50 [1, 11]: 11.8 ± 0.74 µM
- IC50 ([2]; Homo sapiens, SK-N-SH): 4.49 ± 0.45 µM
- IC50 [3, 12]: 5.56 ± 0.45 µM
- melting point: 151 to 153 °C

Molecule: O=C(/C=C/c1ccc(Cl)cc1)c1ccc(OCCCn2cc(CSc3nncs3)nn2)cc1 [Compound I-20, (E)-1-(4-(3-(4-(((1,3,4-Thiadiazol-2-yl)thio)methyl)-1H-1,2,3-triazol-1-yl)propoxy)phenyl)-3-(4-chlorophenyl)prop-2-en-1-one]
- IC50 [1, 11]: 5.81 ± 0.21 µM
- IC50 ([2]; Homo sapiens, SK-N-SH): 3.75 ± 1.21 µM
- IC50 [3, 12]: 46.3 ± 1.64 µM
- melting point: 143 to 145 °C

Molecule: O=C(/C=C/c1cccs1)c1ccc(OCCCn2cc(CSc3nncs3)nn2)cc1 [Compound I-23, (E)-1-(4-(3-(4-(((1,3,4-Thiadiazol-2-yl)thio)methyl)-1H-1,2,3-triazol-1-yl)propoxy)phenyl)-3-(thiophen-2-yl)prop-2-en-1-one]
- IC50 [1, 11]: 57.2 ± 1.63 µM
- IC50 ([2]; Homo sapiens, SK-N-SH): 21 ± 1.81 µM
- IC50 [3, 12]: 15.1 ± 0.85 µM

Molecule: Cn1nnnc1SCc1cn(CCCOc2ccc(C(=O)/C=C/c3ccc(Cl)cc3)cc2)nn1 [Compound I-24, (E)-3-(4-Chlorophenyl)-1-(4-(3-(4-(((1-methyl-1H-tetrazol-5-yl)thio)methyl)-1H-1,2,3-triazol-1-yl)propoxy)phenyl)prop-2-en-1-one]
- IC50 [1, 11]: 24.9 ± 1.09 µM
- IC50 ([2]; Homo sapiens, SK-N-SH): 28.4 ± 1.59 µM
- IC50 [3, 12]: 50.1 ± 0.97 µM
- melting point: 149 to 150 °C

Molecule: COc1cc(/C=C/C(=O)c2ccc(OCCCn3cc(CSC4=NCCS4)nn3)cc2)cc(OC)c1OC [Compound I-14, (E)-1-(4-(3-(4-(((4,5-Dihydrothiazol-2-yl)thio)methyl)-1H-1,2,3-triazol-1-yl)propoxy)phenyl)-3-(3,4,5-trimethoxyphenyl)prop-2-en-1-one]
- IC50 [1, 11]: 3.57 ± 0.22 µM
- IC50 ([2]; Homo sapiens, SK-N-SH): 5.87 ± 1.05 µM
- IC50 [3, 12]: 8.52 ± 0.56 µM
- IC50 ([4]; GES1): > 64 µM
- selectivity between cancer and normal cells [4]: good selectivity
- IC50 ([5]; Homo sapiens): 3.57 to 8.52 µM
- melting point: 169 to 171 °C

Molecule: O=C(/C=C/c1ccc(Cl)cc1)c1ccc(OCCCn2cc(CSc3nc4ccccc4s3)nn2)cc1 [Compound I-17]
- IC50 [1, 11]: 9.54 ± 0.05 µM
- IC50 ([2]; Homo sapiens, SK-N-SH): > 100 µM
- IC50 [3, 12]: 38.2 ± 0.58 µM
- melting point: 172 to 174 °C

Molecule: O=C(/C=C/c1ccc(Cl)cc1)c1ccc(OCCCn2cc(CSC3=NCCS3)nn2)cc1 [Compound I-13, (E)-3-(4-Chlorophenyl)-1-(4-(3-(4-(((4,5-dihydrothiazol-2-yl)thio)methyl)-1H-1,2,3-triazol-1-yl)propoxy)phenyl)prop-2-en-1-one]
- IC50 [1, 11]: > 100 µM
- IC50 ([2]; Homo sapiens, SK-N-SH): 19.3 ± 0.47 µM
- IC50 [3, 12]: 37.2 ± 0.85 µM
- melting point: 151 to 153 °C

Molecule: COc1ccc(C(=O)/C=C/c2cc(OC)c(OC)c(OC)c2)cc1OC [Compound 2]
- IC50 [6]: 1.1 µM

Molecule: O=C(/C=C/c1cccnc1)c1ccc(OCCCn2cc(CSc3nc4ccccc4s3)nn2)cc1 [Compound I-18, (E)-1-(4-(3-(4-((Benzo[d]thiazol-2-ylthio)methyl)-1H-1,2,3-triazol-1-yl)propoxy)phenyl)-3-(pyridin-3-yl)prop-2-en-1-one]
- IC50 [1, 11]: 24.6 ± 3.8 µM
- IC50 ([2]; Homo sapiens, SK-N-SH): 14.8 ± 0.72 µM
- IC50 [3, 12]: 6.24 ± 0.05 µM
- melting point: 144 to 146 °C

Molecule: O=C(/C=C/c1cccnc1)c1ccc(OCCCn2cc(CSc3nncs3)nn2)cc1 [Compound I-22, (E)-1-(4-(3-(4-(((1,3,4-Thiadiazol-2-yl)thio)methyl)-1H-1,2,3-triazol-1-yl)propoxy)phenyl)-3-(pyridin-3-yl)prop-2-en-1-one]
- IC50 [1, 11]: 14.6 ± 1.21 µM
- IC50 ([2]; Homo sapiens, SK-N-SH): 12.4 ± 0.44 µM
- IC50 [3, 12]: 4.45 ± 0.82 µM
- melting point: 146 to 149 °C

Molecule: Cn1nnnc1SCc1cn(CCCOc2ccc(C(=O)/C=C/c3cccs3)cc2)nn1 [Compound I-27, (E)-1-(4-(3-(4-(((1-Methyl-1H-tetrazol-5-yl)thio)methyl)-1H-1,2,3-triazol-1-yl)propoxy)phenyl)-3-(thiophen-2-yl)prop-2-en-1-one]
- IC50 [1, 11]: > 100 µM
- IC50 ([2]; Homo sapiens, SK-N-SH): 29.3 ± 0.85 µM
- IC50 [3, 12]: 38.1 ± 0.91 µM
- melting point: 129 to 130 °C

Molecule: COc1cc(/C=C/C(=O)c2ccc(OCCCn3cc(CSc4nnnn4C)nn3)cc2)cc(OC)c1OC [Compound I-25, (E)-1-(4-(3-(4-(((1-Methyl-1H-tetrazol-5-yl)thio)methyl)-1H-1,2,3-triazol-1-yl)propoxy)phenyl)-3-(3,4,5-trimethoxyphenyl)prop-2-en-1-one]
- IC50 [1, 11]: 5.28 ± 0.56 µM
- IC50 ([2]; Homo sapiens, SK-N-SH): 6.98 ± 0.4 µM
- IC50 [3, 12]: 5.66 ± 0.55 µM
- melting point: 105 to 107 °C

Molecule: (E)-1-(4-(3-(4-(((1,3,4-Thiadiazol-2-yl)thio)methyl)-1H-1,2,3-triazol-1-yl)propoxy)phenyl)-3-(3,4,5-trimethoxyphenyl)prop-2-en-1-one [Compound I-21]
- IC50 ([1]; 72 h exposure): 10.4 ± 0.24 µM
- IC50 [2]: 1.52 ± 0.3 µM
- IC50 ([3]; 72 h exposure): 4.26 ± 0.32 µM
- selectivity between cancer and normal cells [4]: good selectivity
- IC50 [4]: 43.7 ± 1.35 µM
- apoptotic morphological changes (Hoechst 33258 staining) [7]: characteristic apoptotic morphological changes
- level of Bax [8]: increased the level of Bax
- level of Bcl-2 [8]: reduced the level of Bcl-2
- IC50 [5]: 1.52 to 10.4 µM

Molecule: O=C(/C=C/c1cccs1)c1ccc(OCCCn2cc(CSC3=NCCS3)nn2)cc1 [Compound I-16, (E)-1-(4-(3-(4-(((4,5-Dihydrothiazol-2-yl)thio)methyl)-1H-1,2,3-triazol-1-yl)propoxy)phenyl)-3-(thiophen-2-yl)prop-2-en-1-one]
- IC50 [1, 11]: 19.3 ± 0.79 µM
- IC50 ([2]; Homo sapiens, SK-N-SH): 11.2 ± 0.26 µM
- IC50 [3, 12]: 8.69 ± 0.42 µM
- melting point: 104 to 106 °C

Molecule: O=c1[nH]cc(F)c(=O)[nH]1 [Compound 5-FU, 5-fluorouracil, reference compound]
- IC50 [1, 11]: 10.3 ± 0.32 µM
- IC50 ([2]; Homo sapiens, SK-N-SH): 9.85 ± 0.76 µM
- IC50 [3, 12]: 7.14 ± 0.28 µM

Molecule: O=C(/C=C/c1cccnc1)c1ccc(OCCCn2cc(CSC3=NCCS3)nn2)cc1 [Compound I-15, (E)-1-(4-(3-(4-(((4,5-Dihydrothiazol-2-yl)thio)methyl)-1H-1,2,3-triazol-1-yl)propoxy)phenyl)-3-(pyridin-3-yl)prop-2-en-1-one]
- IC50 [1, 11]: 42.36 ± 0.18 µM
- IC50 ([2]; Homo sapiens, SK-N-SH): 47.3 ± 1.57 µM
- IC50 [3, 12]: 63.8 ± 1.17 µM
- melting point: 149 to 151 °C

Molecule: O=C(/C=C/c1ccccc1)c1ccccc1 [Compound 1]
- IC50 MCF-7 [9]: 6.88 µg/mL (≈ 33 µM)

Molecule: O=C(/C=C/c1cccs1)c1ccc(OCCCn2cc(CSc3nc4ccccc4s3)nn2)cc1 [Compound I-19, (E)-1-(4-(3-(4-((Benzo[d]thiazol-2-ylthio)methyl)-1H-1,2,3-triazol-1-yl)propoxy)phenyl)-3-(thiophen-2-yl)prop-2-en-1-one]
- IC50 [1, 11]: 38.8 ± 1.05 µM
- IC50 ([2]; Homo sapiens, SK-N-SH): 37.8 ± 0.91 µM
- IC50 [3, 12]: 24.4 ± 0.71 µM

Molecule: O=C(NCc1cn(Cc2cccc(Oc3ccccc3)c2)nn1)c1ccccn1 [Compound 4]
- IC50 [9]: 0.046 µM

Molecule: CN(C)CCN1C(=O)c2cccc3cc(-n4cc(-c5ccccc5)nn4)cc(c23)C1=O [Compound 3]
- IC50 [9]: 0.348 µM
- IC50 [10]: 0.258 µM

— PMC6274517, “Design, Synthesis and Structure-Activity Relationships of Novel Chalcone-1,2,3-triazole-azole Derivates as Antiproliferative Agents” (Molecules, 2016)
